Assay results reported in patent US5155121A, “Phenylsulphonamide substituted pyridinealkene- and aminooxyalkanecarboxylic acid derivatives” (Bayer Aktiengesellschaft, priority 1990, dated 1992).

Test system: platelet aggregation
Test: Platelet aggregation-inhibiting action (TAI), collagen-induced, turbidometric, in platelet-rich citrate plasma
Format: cell-based
Conditions: Homo sapiens, 0.1 h, range of the minimum effective concentration, PRP from healthy donors, 37° C., 6 minutes, read-out: TAI threshold concentration
Description: Blood from healthy donors of both sexes was used for the determination of the platelet aggregation-inhibiting action. As an anticoagulant, 9 parts of blood were admixed to one part of 3.8% strength aqueous sodium citrate solution. Platelet-rich citrate plasma (PRP)^1 is obtained from this blood by means of centrifugation (Jurgens/Beller, Klinische Methoden der Blutgerinnungsanalyse (Clinical Methods of Blood Coagulation Analysis); Thieme Verlag, Stuttgart, 1959).
For these investigations, 0.8 ml of (PRP)^1 and 0.1 ml of the active compound solution were preincubated in a water bath at 37° C. The platelet aggregation was then determined by the turbidometric method (Born, G.V.R., J. Physiol. (London), 162, 67, 1962) in an aggregometer at 37° C. (Therapeutische Berichte 47, 80-86, 1975). To this end, 0.1 ml of collagen, an aggregation-inducing agent, was added to the preincubated sample. The change in the optical density in the sample of the (PRP) was recorded during a period of 6 minutes and the result was determined after 6 minutes. To do this, the percentage inhibition was calculated compared to the control.
The range of the minimum effective concentration was given as the threshold concentration.

O=C(O)CCCCON=C(c1cccnc1)c1cccc(NS(=O)(=O)c2ccc(Cl)cc2)c1 (mixture of isomers) [Example I, (E/Z)-5-[[[3-Pyridinyl-3-(4-chlorophenylsulphonamido)phenyl]methylene]iminooxy]pentanecarboxylic acid] gave a minimal effective concentration of 0.3 to 1 µg/mL.
O=C(O)CCCCC=C(c1cccnc1)c1cccc(NS(=O)(=O)c2ccc(Cl)cc2)c1 (mixture of isomers) [Example XV] gave a minimal effective concentration of 3 to 10 µg/mL.
In the case of O=C(O)CCCCCCON=C(c1cccnc1)c1cccc(NS(=O)(=O)c2ccc(Cl)cc2)c1 (mixture of isomers) [XIII, (E/Z)-7-[[[3-Pyridinyl-3-(4-chlorophenylsulphonamido)phenyl]methylene]iminooxy]heptane-carboxylic acid], the minimal effective concentration is reported as > 10 µg/mL.
O=C(O)CCCCON=C(c1cccnc1)c1cccc(NS(=O)(=O)c2ccc(F)cc2)c1 [II] gave a minimal effective concentration of 1 to 3 µg/mL.
Compound O=C(O)CCCCCON=C(c1cccnc1)c1cccc(NS(=O)(=O)c2ccc(Cl)cc2)c1 [XII] has a minimal effective concentration of 1 to 3 µg/mL.
With O=C(O)CCCCCC(c1cccnc1)c1cccc(NS(=O)(=O)c2ccc(Cl)cc2)c1 (stereo not drawn) [XXVI] the minimal effective concentration was 0.1 to 0.3 µg/mL.
